Measurements as given in the Kinase Knowledgebase extract (Sharma et al. 2016).

Target: EGFR (UniProt P00533)
Sequence (P00533 whole entry, looked up): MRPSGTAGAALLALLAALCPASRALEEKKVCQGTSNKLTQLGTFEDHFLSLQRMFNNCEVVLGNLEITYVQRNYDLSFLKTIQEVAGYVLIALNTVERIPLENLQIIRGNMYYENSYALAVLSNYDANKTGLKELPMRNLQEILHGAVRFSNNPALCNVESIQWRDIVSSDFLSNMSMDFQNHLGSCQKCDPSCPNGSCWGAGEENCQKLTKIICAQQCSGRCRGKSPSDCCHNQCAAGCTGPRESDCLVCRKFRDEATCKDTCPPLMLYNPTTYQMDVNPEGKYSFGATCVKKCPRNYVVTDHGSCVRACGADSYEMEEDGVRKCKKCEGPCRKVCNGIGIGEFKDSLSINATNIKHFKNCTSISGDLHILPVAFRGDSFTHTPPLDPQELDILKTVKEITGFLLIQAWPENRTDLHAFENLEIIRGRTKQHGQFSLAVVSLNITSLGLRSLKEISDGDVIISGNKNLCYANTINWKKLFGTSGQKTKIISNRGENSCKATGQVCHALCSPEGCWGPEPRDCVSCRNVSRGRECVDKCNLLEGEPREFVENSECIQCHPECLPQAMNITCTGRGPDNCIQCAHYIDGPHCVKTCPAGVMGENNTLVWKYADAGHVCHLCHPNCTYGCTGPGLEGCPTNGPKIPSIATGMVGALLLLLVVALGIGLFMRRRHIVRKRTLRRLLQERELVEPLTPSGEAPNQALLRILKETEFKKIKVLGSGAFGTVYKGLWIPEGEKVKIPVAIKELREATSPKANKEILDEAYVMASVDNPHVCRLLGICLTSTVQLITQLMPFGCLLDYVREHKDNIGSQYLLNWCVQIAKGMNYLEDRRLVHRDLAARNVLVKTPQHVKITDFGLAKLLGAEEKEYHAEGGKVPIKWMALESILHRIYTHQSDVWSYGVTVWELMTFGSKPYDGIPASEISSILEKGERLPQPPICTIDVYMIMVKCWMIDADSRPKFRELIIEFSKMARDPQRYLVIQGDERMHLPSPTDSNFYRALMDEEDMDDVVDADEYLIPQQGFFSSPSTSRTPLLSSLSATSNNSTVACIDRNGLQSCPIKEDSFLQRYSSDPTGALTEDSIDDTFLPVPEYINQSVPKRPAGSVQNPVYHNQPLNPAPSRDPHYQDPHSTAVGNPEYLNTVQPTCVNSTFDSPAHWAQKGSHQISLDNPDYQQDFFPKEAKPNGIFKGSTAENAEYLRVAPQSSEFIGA

IC50 | SMILES
500 to 5000 nM | COCCN1CCC(Nc2ccc3c(c2)/C(=C(\c2cccc(OC)c2)c2nc4ccccc4[nH]2)C(=O)N3)CC1
500 to 5000 nM | CC1(C)CC(Nc2ccc3c(c2)/C(=C(\c2ccccc2)c2nc4ccccc4[nH]2)C(=O)N3)CC(C)(C)N1
50 to 500 nM | COCCN1CCC(Nc2ccc3c(c2)/C(=C(\c2ccc(C)cc2)c2ncc[nH]2)C(=O)N3)CC1
50 to 500 nM | CCN1CCC(Nc2ccc3c(c2)/C(=C(\c2cccc(Cl)c2)c2ncc[nH]2)C(=O)N3)CC1
50 to 500 nM | CCN1CCC(Nc2ccc3c(c2)/C(=C(\c2ccc(Cl)cc2)c2nc(C)c[nH]2)C(=O)N3)CC1
> 5000 nM | O=C1Nc2ccc(NC3CCNCC3)cc2/C1=C(\c1cccc(F)c1)c1ncc[nH]1
> 5000 nM | COCCN1CCC(Nc2ccc3c(c2)/C(=C(\c2ccc(F)c(Cl)c2)c2ncc[nH]2)C(=O)N3)CC1
50 to 500 nM | CCN1CCC(Nc2ccc3c(c2)/C(=C(/c2ncc[nH]2)c2ccc(C(F)(F)F)cc2F)C(=O)N3)CC1
50 to 500 nM | COCCN1CCC(Nc2ccc3c(c2)/C(=C(\c2ccc(C)cc2)c2nc(C)c[nH]2)C(=O)N3)CC1
50 to 500 nM | CCN1CCC(Nc2ccc3c(c2)/C(=C(\c2cccc(F)c2)c2nc(-c4ccccc4)c[nH]2)C(=O)N3)CC1
50 to 500 nM | Cc1ccc(/C(=C2/C(=O)Nc3ccc(NC4CCN(C)CC4)cc32)c2ncc[nH]2)cc1
500 to 5000 nM | COc1ccc2[nH]c(/C(=C3\C(=O)Nc4ccc(NC5CCN(Cc6ccccc6)C5)cc43)c3ccccc3)nc2c1 (configuration not stated)
500 to 5000 nM | CCN1CCC(Nc2ccc3c(c2)/C(=C(\c2ccc(C(F)(F)F)cc2)c2ncc[nH]2)C(=O)N3)CC1
50 to 500 nM | CCN1CCC(Nc2ccc3c(c2)/C(=C(/c2ncc[nH]2)c2cc(F)c(Cl)cc2Cl)C(=O)N3)CC1
50 to 500 nM | CCN1CCC(Nc2ccc3c(c2)/C(=C(\c2cc(F)cc(F)c2)c2nc(C)c[nH]2)C(=O)N3)CC1
50 to 500 nM | COCCN1CCC(Nc2ccc3c(c2)/C(=C(\c2cccc(F)c2)c2nc4ccccc4[nH]2)C(=O)N3)CC1
> 5000 nM | COCCN1CCC(Nc2ccc3c(c2)/C(=C(\c2ccccc2)c2ncc[nH]2)C(=O)N3)CC1
> 5000 nM | COCCN1CCC(Nc2ccc3c(c2)/C(=C(\c2cccc(F)c2)c2ncn[nH]2)C(=O)N3)CC1
< 50 nM | CCN1CCC(Nc2ccc3c(c2)/C(=C(\c2ccc(C)c(F)c2)c2nc(C)c[nH]2)C(=O)N3)CC1
500 to 5000 nM | CCN1CCC(Nc2ccc3c(c2)/C(=C(\c2ccc(F)cc2)c2nc4ccccc4[nH]2)C(=O)N3)CC1
50 to 500 nM | COCCN1CCC(Nc2ccc3c(c2)/C(=C(\c2cccc(F)c2)c2nc(-c4ccccc4)c[nH]2)C(=O)N3)CC1
50 to 500 nM | CCN1CCC(Nc2ccc3c(c2)/C(=C(\c2ccc(F)c(Cl)c2)c2nc(C)c[nH]2)C(=O)N3)CC1
